Laboratory results: patent US20110154513A1, “PROBE FOR VISUALIZING NEURAL ACTIVITY” (University of Toyama, priority 2008, published 2011)

Tests used:
hippocampal nerve cells = assay: Luminescence (photon count) of probes expressed in cultured hippocampal nerve cells after stimulation; format: cell-based, rat
Protocol: On day 18 of pregnancy, a rat fetus was taken out of a pregnant rat, and the brain was separated therefrom in cold PBS. Furthermore, brain slices containing hippocampal nerve cells were separated from the cerebrum. The separated hippocampal cells were reacted with 0.125% trypsin (protease) at room temperature for 20 minutes in a test tube such that adhesion factors on the cell surface were degraded to attenuate cell-cell adhesion. Then, the test tube was left standing for trypsin removal. After precipitation of the brain slices in the bottom of the test tube, the trypsin solution as a supernatant was removed by aspiration. Subsequently, a DMEM medium containing 10% serum was added to the test tube. The test tube was left standing again, and the supernatant was removed. The brain slices were dissociated into individual cells by repeating approximately 10 times aspiration and dropping using a plastic dropper. Then, the cells were cultured in a plastic dish.
On culture day 4, the plasmid encoding the fusion protein 1 of Example 1 was gene-transferred into the cells. The gene transfer method was performed using Lipofectamine 2000 in the same way as in the HEK293 cells. Two days after the gene transfer, the medium was replaced by an Opti-MEM medium (Invitrogen Corp.) containing 0.5 mM luciferin EF (Promega Corp.), a luminescent substrate of luciferase. The luminescence intensity was measured using a luminometer AEQUORIA (Hamamatsu Photonics K.K.). This apparatus counts the number of photons generated from cells during culture placed together with a plastic dish in a dark box. The measurement was performed for 1 consecutive hour, and the luminescence intensity at 1-minute intervals was plotted on the ordinate of a graph. Immediately before the measurement, the cells were stimulated with forskolin, glutamate, KCl, or the like.

actin polymerization = assay: Luminescence of IRES-linked split luciferase-actin fusion proteins in HEK293 cells with actin polymerization inhibitor; format: cell-based; conditions: inhibitor added 3 hours before measurement, varying concentrations
Excerpt: FIG. 7 is a graph showing results of Example 8. The graph depicts the relationship between an actin polymerization inhibitor concentration and luminescence from split luciferase-actin fusion proteins bound via an IRES sequence and expressed in HEK293 cells;
For preparing a form suitable for transgenic mouse preparation, plasmids were constructed for a fusion protein comprising two fusion proteins bound via an IRES sequence (the resultant fusion protein is referred to as a fusion protein 13: LucN-Actin-IRES-LucC-actin). LucC-Actin and LucN-Actin are thereby translated from one mRNA and expressed in cells. The gene transfer was performed in the same way as in Example 1. Moreover, in this experiment, an actin polymerization inhibitor latrunculin A was added into a medium 3 hours before luminescence measurement. Moreover, the luminescence measurement used a luminometer AEQUORIA (Hamamatsu Photonics K.K.).
This is the evidence that the luminescence of the prepared protein serves as an index for actin polymerization.

polymerized actin = assay: Rhodamine-phalloidin staining of polymerized actin in HEK293T cells; format: cell-based; conditions: varying concentrations of inhibitor
Protocol: FIG. 8 is a photograph showing results of Example 9. The photograph is an image of polymerized actin stained with rhodamine-phalloidin in the presence of varying concentrations of a polymerization inhibitor;
HEK293T cells were treated with latrunculin A and then fixed in 4% paraformaldehyde, and only polymerized actin was stained using F-Actin Visualization Biochem Kit (Cosmo Bio Co., Ltd.).
An image of polymerized actin stained with rhodamine-phalloidin in the presence of varying concentrations of the polymerization inhibitor was confirmed.

[Cl-].[K+] [KCl, potassium chloride]
increase in luminescence intensity by KCl stimulation (hippocampal nerve cells; fusion protein 1 expressed in nerve cells, compared to before addition of KCl): approximately 6 times | effect of stimulation on luminescence intensity (hippocampal nerve cells; nerve cells expressing fusion protein 5, 50 mM KCl, alone or with additive): increases the luminescence intensity

C/C1=C/C(=O)O[C@@H]2C[C@@H](CC[C@H](C)/C=C\C=C\CC1)O[C@@](O)([C@@H]1CSC(=O)N1)C2 [latrunculin A]
luminescence of split luciferase-actin probe (actin polymerization): decreased in a concentration-dependent manner | polymerized actin (rhodamine-phalloidin staining) (polymerized actin): decreased in a concentration-dependent manner

wild-type luciferase: wild-type firefly luciferase (Promega Corp.), control experiment
response of luminescence to KCl (hippocampal nerve cells; probe expressed in nerve cells, KCl stimulation): does not exhibit the response to KCl
